The source of these data is patent US20160213714A1, “INDUCTION OF CELLULAR SENESCENCE FOR TISSUE THERAPIES” (Everon Biosciences, Inc., priority 2015, published 2016).

The subject of test [1] is primary human WI-38 fibroblasts. As to the kind of experiment: Senescence induction (SA-β-Gal activity, morphology) of bleomycin-treated cells. It counts as cell-based. The conditions noted are these: 15 ug/ml for 72 hours; stained 7 days post-treatment. As for the experimental part: (§1) FIG. 1: Senescence-associated beta-galactosidase (SA-β-Gal) activity of bleomycin-treated cells. A549 cancer cells (panel A) and primary human WI-38 fibroblasts (panel B) were treated for 72 hours with 50 ug/ml or 15 ug/ml of bleomycin, respectively. Cells were fixed and stained 7 days post-bleomycin treatment. Non-treated cultures, confluent at the time of staining, were used as controls.

The subject of a further test is A549 cancer cells. The description is as above. It counts as cell-based. The settings on record: 50 ug/ml for 72 hours; stained 7 days post-treatment. Here is the method:
as §1

bleomycin: the cellular morphology entry (in test [1]; in the test with A549 cancer cells) was “Enlarged cellular morphology” each time.
